Source: US12600721B2, “TYK2 inhibitors and uses thereof” (Sudo Biosciences Limited, priority 2021, dated 2026)

Legend:
TYK2 Pseudokinase (JH2) [1] = experiment: HEK-Blue IL-23 reporter assay (SEAP) for profiling TYK2 pseudokinase (JH2) inhibition; assay type: cell-based; details: HEK-Blue IL-23 cells, 10 ng/mL human recombinant IL-23, SEAP reporter; read-out: IL23 IC50 (TYK2 inhibitory activity)
Protocol: (§1) HEK-Blue™ IL-23 and IFNα/β cells with a stably-integrated cytokine receptor and STAT3 or STAT1 express STAT-inducible secreted embryonic alkaline phosphatase (SEAP) reporter gene upon cytokine stimulation. These cells are plated in DMEM (Gibco) containing 10% heat-inactivated FBS (Gibco) and 100 U/mL PenStrep (Gibco) at 37° C. under 5% CO2 conditions for 20-22 hours. The cells are then pretreated with serially diluted test compounds for 60 min prior to stimulation with either 10 ng/mL human recombinant IL-23 (Miltenyl Biotech) or 1 ng/mL human recombinant IFNα (InvivoGen) for 22-24 hours for IL-23 or 16-18 h for IFNα. SEAP induction is measured using the QUANTI Blue™ Solution (InvivoGen) according to the manufacturer's instructions.

TYK2 Pseudokinase (JH2) [2] = experiment: HEK-Blue IFNα/β reporter assay (SEAP) for profiling TYK2 pseudokinase (JH2) inhibition; assay type: cell-based; details: HEK-Blue IFNα/β cells, 1 ng/mL human recombinant IFNα, read-out: IFNα IC50 (TYK2 inhibitory activity)
Protocol: as §1

JAK1-JH1 = molecular target: T1, JAK1-JH1 (Homo sapiens, UniProt P23458); experiment: HTRF-based selectivity assay, JAK1 catalytic domain; assay type: biochemical; details: kinase domain (JH1), 21.43 μM ATP
T1 construct: using a recombinant purified His or GST-tagged catalytic domain for each enzyme; made in house
Protocol: (§2) The ability of compounds to inhibit the activity of JAK1, JAK2, JAK3 and TYK2 is measured using a recombinant purified His or GST-tagged catalytic domain for each enzyme (JAK1, JAK2 and TYK2 are generated in-house; JAK3 was purchased from Carna biosciences, Cat #08-046) in an HTRF format biochemical assay. The reactions employs a commercial peptide substrate from Cisbio (Cat #62TK0PEC). The basic assay protocol is as follows: first, 2.5 μL of diluted compounds (4×) in DMSO are dispensed into a 384-well Optiplate. Next, 2.5 μL of enzyme (final concentrations for enzymes are: TYK2-700 ng/mL, JAK1-80.6 ng/ml, JAK2-2.1 ng/ml and JAK3-171.8 ng/mL) is added and incubated at RT for 5-20 min. Finally, 5 μl of mixture of 2×ATP [Final concentration 20 μM for TYK2, 21.43 μM for JAK1, 14.7 μM for JAK2 and 2.12 μM for JAK3]+2× Substrate [Final concentration 217 nM for TYK2, 454.7 nM for JAK1, 200 nM for JAK2 and 257.4 nM for JAK3] is added to 384 well Optiplate. Composition of Kinase assay buffer used in the assay is as follows: HEPES 50 mM, EGTA 1 mM, MgCl2 10 mM, DTT 2 mM, Tween-20 0.01% and water. Then the plates are shaken and then incubated at 26.5° C. for 60 min.

[3] = tested on: HEK-Blue IFNγ reporter cells; experiment: HEK-Blue IFNγ reporter assay (SEAP) for determining selectivity; assay type: cell-based; details: 50 ng/ml human recombinant IFNγ, read-out: IFN-γ IC50 (SEAP selectivity)
Protocol: (§3) HEK-Blue™ IL-2 and IFNγ reporter cells with a stably-integrated cytokine receptor and STAT5 or STAT1 express STAT-inducible secreted embryonic alkaline phosphatase (SEAP) reporter gene upon cytokine stimulation. These cells were plated in DMEM (Gibco) containing 10% heat-inactivated FBS (Gibco) and 100 U/mL PenStrep (Gibco) at 37° C. under 5% CO2 conditions for 20-22 hours. The cells were then pretreated with serially diluted test compounds for 60 min prior to stimulation with either 4 ng/ml human recombinant IL-2 (Miltenyl Biotech) or 50 ng/ml human recombinant IFNγ (InvivoGen) for 24 hours. SEAP induction was measured using the QUANTI-Blue™ Solution (InvivoGen) according to the manufacturer's instructions.

JAK3-JH1 = molecular target: T2, JAK3-JH1 (Homo sapiens, UniProt P52333); experiment: HTRF-based selectivity assay, JAK3 catalytic domain; assay type: biochemical; details: kinase domain (JH1), 2.12 μM ATP
T2 construct: using a recombinant purified His or GST-tagged catalytic domain for each enzyme; purchased Carna biosciences 08-046
Protocol: as §2

JAK2-JH1 = molecular target: T3, JAK2-JH1 (Homo sapiens, UniProt O60674); experiment: HTRF-based selectivity assay, JAK2 catalytic domain; assay type: biochemical; details: kinase domain (JH1), 14.7 μM ATP
T3 construct: using a recombinant purified His or GST-tagged catalytic domain for each enzyme; made in house
Protocol: as §2

TYK2-JH1 = molecular target: T4, TYK2-JH1 (Homo sapiens, UniProt P29597); experiment: HTRF-based selectivity assay, TYK2 catalytic domain; assay type: biochemical; details: kinase domain (JH1), 20 μM ATP
T4 construct: using a recombinant purified His or GST-tagged catalytic domain for each enzyme; made in house
T4 sequence (P29597 897-1176 limits assumed): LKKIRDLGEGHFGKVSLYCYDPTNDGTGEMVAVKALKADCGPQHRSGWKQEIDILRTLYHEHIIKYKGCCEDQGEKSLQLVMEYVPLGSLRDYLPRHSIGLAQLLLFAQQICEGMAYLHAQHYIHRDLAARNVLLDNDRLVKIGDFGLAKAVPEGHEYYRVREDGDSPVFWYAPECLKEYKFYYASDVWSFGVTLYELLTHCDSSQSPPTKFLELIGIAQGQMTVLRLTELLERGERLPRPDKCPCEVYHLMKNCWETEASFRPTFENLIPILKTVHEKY
Protocol: as §2

[4] = tested on: HEK-Blue IL-2 reporter cells; experiment: HEK-Blue IL-2 reporter assay (SEAP) for determining selectivity; assay type: cell-based; details: HEK-Blue IL-2 cells, 4 ng/ml human recombinant IL-2, SEAP reporter
Protocol: as §3

T1 sequence (P23458 875-1153 limits assumed): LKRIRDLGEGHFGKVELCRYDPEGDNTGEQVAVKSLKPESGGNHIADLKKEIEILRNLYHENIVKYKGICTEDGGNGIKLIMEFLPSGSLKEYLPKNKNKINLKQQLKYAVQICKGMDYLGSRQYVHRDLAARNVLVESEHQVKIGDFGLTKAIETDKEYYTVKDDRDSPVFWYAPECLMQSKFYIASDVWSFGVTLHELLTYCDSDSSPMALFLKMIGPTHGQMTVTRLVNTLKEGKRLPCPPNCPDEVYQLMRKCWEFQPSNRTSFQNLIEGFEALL
T2 sequence (P52333 822-1111 limits assumed): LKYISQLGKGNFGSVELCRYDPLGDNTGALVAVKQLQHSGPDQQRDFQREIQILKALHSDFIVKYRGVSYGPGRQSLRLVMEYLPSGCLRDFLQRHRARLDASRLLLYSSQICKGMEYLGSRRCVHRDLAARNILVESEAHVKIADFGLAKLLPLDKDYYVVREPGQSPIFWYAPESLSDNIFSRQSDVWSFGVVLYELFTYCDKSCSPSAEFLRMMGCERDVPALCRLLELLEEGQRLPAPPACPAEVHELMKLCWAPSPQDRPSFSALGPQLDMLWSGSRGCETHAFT
T3 sequence (O60674 849-1124 limits assumed): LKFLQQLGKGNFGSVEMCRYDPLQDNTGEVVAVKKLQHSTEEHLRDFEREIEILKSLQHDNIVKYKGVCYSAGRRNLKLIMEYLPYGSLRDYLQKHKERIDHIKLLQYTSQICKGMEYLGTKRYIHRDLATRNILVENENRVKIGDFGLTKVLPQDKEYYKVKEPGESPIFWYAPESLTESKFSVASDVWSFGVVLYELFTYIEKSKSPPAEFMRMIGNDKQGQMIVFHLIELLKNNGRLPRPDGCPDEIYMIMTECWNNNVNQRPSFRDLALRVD

IC50 (TYK2 Pseudokinase (JH2) [1])	IC50 (TYK2 Pseudokinase (JH2) [2])	IC50 (JAK1-JH1)	IC50 (JAK3-JH1)	IC50 (JAK2-JH1)	IC50 (TYK2-JH1)	Compound	IC50 [3]	IC50 [4]
< 30 nM	< 30 nM	> 1000 nM	> 1000 nM	> 1000 nM	> 1000 nM	[2H]C([2H])([2H])NC(=O)c1nnc(NC(=O)C2CC2)cc1Nc1cccc2c1N(C)Cc1cccnc1-2 [Compound 1, 6-(cyclopropanecarboxamido)-N-(methyl-d3)-4-((6-methyl-5,6-dihydrobenzo[h][1,6]naphthyridin-7-yl)amino)pyridazine-3-carboxamide]	> 1000 nM	> 1000 nM
< 30 nM	< 30 nM	> 1000 nM	> 1000 nM	> 1000 nM	> 1000 nM	[2H]C([2H])([2H])NC(=O)c1nnc(Nc2ccc(F)cn2)cc1Nc1cccc2c1N(C)Cc1cccnc1-2 [Compound 2, 6-((5-fluoropyridin-2-yl)amino)-N-(methyl-d3)-4-((6-methyl-5,6-dihydrobenzo[h][1,6]naphthyridin-7-yl)amino)pyridazine-3-carboxamide]	> 1000 nM	> 1000 nM
< 30 nM	< 30 nM	> 1000 nM	> 1000 nM	> 1000 nM	> 1000 nM	[2H]C([2H])([2H])NC(=O)c1cnc(NC(=O)C2CC2)cc1Nc1cccc2c1N(C)Cc1cccnc1-2 [Compound 3, 6-(cyclopropanecarboxamido)-N-(methyl-d3)-4-((6-methyl-5,6-dihydrobenzo[h][1,6]naphthyridin-7-yl)amino)nicotinamide]	> 1000 nM	> 1000 nM
< 30 nM	< 30 nM	300 to 1000 nM	> 1000 nM	> 1000 nM	> 1000 nM	[2H]C([2H])([2H])NC(=O)c1cnc(NC(=O)C2CC2)cc1Nc1cccc2c1N(C)Cc1cncnc1-2 [Compound 4, 6-(cyclopropanecarboxamido)-N-(methyl-d3)-4-((6-methyl-5,6-dihydropyrimido[5,4-c]quinolin-7-yl)amino)nicotinamide]	> 1000 nM	> 1000 nM
< 30 nM	< 30 nM	–	–	–	–	[2H]C([2H])([2H])NC(=O)c1cnc(NC(=O)C2CC2)cc1Nc1nccc2c1N(C)Cc1nccnc1-2 [Compound 14, 6-(cyclopropanecarboxamido)-N-(methyl-d3)-4-((6-methyl-5,6-dihydropyrazino[2,3-c][1,7]naphthyridin-7-yl)amino)nicotinamide]	–	> 1000 nM
< 30 nM	< 30 nM	–	–	–	–	CNC(=O)c1cnc(NC(=O)C2CC2)cc1Nc1cccc2c1N(C)Cc1cccnc1-2 [Compound 15, 6-(cyclopropanecarboxamido)-N-methyl-4-((6-methyl-5,6-dihydrobenzo[h][1,6]naphthyridin-7-yl)amino)nicotinamide]	30 to 300 nM	> 1000 nM
< 30 nM	< 30 nM	–	–	–	–	[2H]C([2H])([2H])NC(=O)c1cnc(NC(=O)C2CC2)cc1Nc1nccc2c1N(C)Cc1cccnc1-2 [Compound 19, 6-(cyclopropanecarboxamido)-N-(methyl-d3)-4-((6-methyl-5,6-dihydropyrido[3,4-h][1,6]naphthyridin-7-yl)amino)nicotinamide]	300 to 1000 nM	> 1000 nM
< 30 nM	< 30 nM	–	–	–	–	[2H]C([2H])([2H])NC(=O)c1cnc(NC(=O)C2CC2)cc1Nc1cccc2c1N(C)C([2H])([2H])c1cccnc1-2 [Compound 20, 6-(cyclopropanecarboxamido)-N-(methyl-d3)-4-((6-methyl-5,6-dihydrobenzo[h][1,6]naphthyridin-7-yl-5,5-d2)amino)nicotinamide]	30 to 300 nM	> 1000 nM
< 30 nM	30 to 300 nM	–	–	–	–	[2H]C([2H])([2H])NC(=O)c1nnc(NC(=O)C2CC2)cc1Nc1cccc2c1N(C)C([2H])([2H])c1cc(F)cnc1-2 [Compound 21, 6-(cyclopropanecarboxamido)-4-((3-fluoro-6-methyl-5,6-dihydrobenzo[h][1,6]naphthyridin-7-yl-5,5-d2)amino)-N-(methyl-d3)pyridazine-3-carboxamide]	30 to 300 nM	300 to 1000 nM
< 30 nM	30 to 300 nM	–	–	–	–	[2H]C([2H])([2H])NC(=O)c1cnc(NC(=O)C2CC2)cc1Nc1cccc2c1N(C)C([2H])([2H])c1cc(F)cnc1-2 [Compound 22, 6-(cyclopropanecarboxamido)-4-((3-fluoro-6-methyl-5,6-dihydrobenzo[h][1,6]naphthyridin-7-yl-5,5-d2)amino)-N-(methyl-d3)nicotinamide]	–	–
< 30 nM	< 30 nM	–	–	–	–	[2H]C([2H])([2H])NC(=O)c1nnc(NC(=O)C2CC2)cc1Nc1cccc2c1N(C)C([2H])([2H])c1ccc(C)nc1-2 [Compound 23, 6-(cyclopropanecarboxamido)-4-((2,6-dimethyl-5,6-dihydrobenzo[h][1,6]naphthyridin-7-yl-5,5-d2)amino)-N-(methyl-d3)pyridazine-3-carboxamide]	30 to 300 nM	> 1000 nM
< 30 nM	30 to 300 nM	–	–	–	–	[2H]C([2H])([2H])NC(=O)c1cnc(NC(=O)C2CC2)cc1Nc1cccc2c1N(C)C([2H])([2H])c1ccc(C)nc1-2 [Compound 24, 6-(cyclopropanecarboxamido)-4-((2,6-dimethyl-5,6-dihydrobenzo[h][1,6]naphthyridin-7-yl-5,5-d2)amino)-N-(methyl-d3)nicotinamide]	> 1000 nM	> 1000 nM
30 to 300 nM	300 to 1000 nM	–	–	–	–	[2H]C([2H])([2H])NC(=O)c1cnc(NC(=O)C2CC2)cc1Nc1cccc2c1N(C)C([2H])([2H])c1ccc(C(F)(F)F)nc1-2 [Compound 25, 6-(cyclopropanecarboxamido)-N-(methyl-d3)-4-((6-methyl-2-(trifluoromethyl)-5,6-dihydrobenzo[h][1,6]naphthyridin-7-yl-5,5-d2)amino)nicotinamide]	–	–
300 to 1000 nM	> 1000 nM	–	–	–	–	[2H]C([2H])([2H])NC(=O)c1nnc(NC(=O)C2CC2)cc1Nc1cccc2c1N(C)C([2H])([2H])c1ccc(C(F)(F)F)nc1-2 [Compound 26, 6-(cyclopropanecarboxamido)-N-(methyl-d3)-4-((6-methyl-2-(trifluoromethyl)-5,6-dihydrobenzo[h][1,6]naphthyridin-7-yl-5,5-d2)amino)pyridazine-3-carboxamide]	30 to 300 nM	> 1000 nM
